According to patent US20260184669A1, “LIPID COMPOUND AND COMPOSITION FOR DELIVERY OF ACTIVE SUBSTANCE” (KOREA RESEARCH INSTIUTE OF BIOSCIENCE AND BIOTECHNOLOGY, priority 2022, published 2026):

How the values were obtained:
[1] = mRNA encapsulation efficiency (Quant-IT RiboGreen RNA assay); assay type: physicochemical; conditions: mRNA encapsulation efficiency of mRNA-LNP made with the ionizable lipid; average of two measurements
Experimental: The mRNA encapsulation efficiency (EE, %) of LNPs containing mRNA was measured using the Quant-IT™ RiboGreen® RNA assay kit (Invitrogen, USA).
The diluted samples were added to each well of a 96-well plate. Group A (without Triton X-100) was supplemented with 50 μL of 1×TE buffer, while Group B (with Triton X-100) was supplemented with 50 μL of 1×TE buffer containing 2% Triton-X 100. To release the encapsulated mRNA, the LNPs were treated with Triton-X 100 and incubated at 37° C. for 10 minutes. Subsequently, 100 μL of ribogreen reagent was added to each well. The fluorescence intensities of Group A and Group B were measured using a multi-plate reader (λex 480 nm, λem 520 nm), and mRNA encapsulation efficiency (%) was calculated using Equation 1 below. The encapsulation efficiency for each LNP was determined as the average of two independent measurements.

[2] = In vivo toxicity evaluation, serum biochemical analysis (AST, ALT, ALP, BUN, creatinine); conditions: serum of mice after injection of fLuc mRNA-LNP, FIG. 9
Experimental: Toxicity induced by fLuc mRNA-LNPs prepared using various ionizable lipids according to the method of Example 27 was evaluated through serum biochemical analysis following […]. injection into mice.
Specifically, 50-100 μL of serum was collected each mouse at 24 and 48 hours after intravenous injection using the retro-orbital bleeding method. The serum biochemical analysis was performed using Hitachi 7150 Chemistry Analyzer, measuring indicators of liver function—aspartate aminotransferase (AST), alanine aminotransferase (ALT), alkaline phosphatase (ALP)- and indicators of kidney function—blood urea nitrogen (BUN) and creatinine.

female C57BL/6 mice = test: Protein expression efficiency of fLuc mRNA-LNPs after intramuscular injection (IVIS whole-body luminescence); assay type: in vivo; conditions: for Total flux 1 hour / Total flux 3 hours / Total flux 6 hours / Total flux 48 hours / Total flux 72 hours / Total flux: fLuc mRNA-LNP, intramuscular injection, luminescence at injection site, mice; for Total flux 1 hour: 1 hour after administration; for Total flux 3 hours: 3 hours after administration; for Total flux 6 hours: 6 hours after administration; for Total flux 48 hours: 48 hours after administration; for Total flux 72 hours: 72 hours after administration; for Total flux: after administration; for Fold increase in total flux at 3 h, MC3: relative to control LNP formulated with MC3; for Fold increase in total flux at 3 h, MC3 / Fold increase in total flux at 3 h, SM-102: 3 hours after intramuscular injection; for Fold increase in total flux at 3 h, SM-102: relative to control LNP formulated with SM-102
Experimental: fLuc mRNA-LNPs formulated using various ionizable lipids were prepared according to the method described in Example 27 and administered in vivo via intramuscular (I. M.) or intravenous (IV.) injection to compare the resulting protein expression efficiency in vivo. As a control, EGFP mRNA-LNPs formulated with commercially available ionizable lipids MC3 or SM-102 were used. All mRNA-LNPs were administered at equal mRNA doses per body weight across different concentration groups (n≥4).
Specifically, the dose of mRNA-LNPs was adjusted to 0.1-0.5 mg/kg of body weight, and the formulation was administered via I.M. or I.V. injection to female C57BL/6 mice (6-10 weeks old, Orient Bio, Korea) Subsequently, […], whole-body luminescence images were acquired using an in vivo imaging system (IVIS Lumina III, PerkinElmer, Walzam, MA, USA). To assess protein expression levels, 200 μL of D-luciferin (15 mg/mL) was administered via intraperitoneal (I.P.) injection 10 minutes prior to imaging. During image acquisition, the animals were anesthetized by inhalation of 3% isoflurane in 97% medical grade oxygen. In addition, the acquired luminescence images were quantitatively analyzed using imaging software (Living Image Software Version 4.4; PerkinElmer, USA).
After intramuscular injection of the fLuc mRNA-LNPs, the luminescence intensity at the injection site was measured over time.
Furthermore, the luminescence intensity at the injection site 3 hours after intramuscular injection was measured, and the relative protein expression efficiency was compared to that of control LNPs formulated with MC3 or SM-102.

[3] = tested on: IL-1β mRNA level in HEK-293T cells; conditions: human
[4] = Size, polydispersity index and surface charge of mRNA-LNP (Malvern Zetasizer Nano ZS90); assay type: physicochemical; conditions: for PDI / size (nm) Number: mRNA-LNP made with the ionizable lipid at its optimal formulation (Table 2); for size (nm) Number: diluted with PBS to 1 μg/mL mRNA; for Zeta (mV): surface charge of mRNA-LNP made with the ionizable lipid at its optimal formulation (Table 2)
Experimental: Each mRNA-LNPs produced in Example 27 was diluted with PBS to a final mRNA concentration of 1 μg/mL. The size, polydispersity index (PDI), and surface charge of the mRNA-LNPs were then measured using a Malvern Zetasizer Nano ZS90 (Malvern Instruments, UK).
For particles intended for systemic administration, such as via blood vessels, the particle size must be less than 200 nm in order to pass through the endothelial capillaries of the liver. In addition, the size distribution is considered uniform only when the PDI is 0.3 or less, which enables consistent and efficient therapeutic effects (Non-patent document 3 [Danaei, M. et al). Pharmaceutics 2018, 10, 57]).

[5] = tested on: CCL3 mRNA level in HEK-293T cells; conditions: human
[6] = tested on: IL-6 mRNA level in HEK-293T cells; conditions: human
[7] = tested on: CCL2 mRNA level in HEK-293T cells; conditions: human
[8] = Stability of mRNA-LNPs according to storage temperature and duration; assay type: physicochemical; conditions: for Normalized EE % D-1 / PDI D-1 / Size (nm) D-1: day 1; for Normalized EE % D-7 / PDI D-7 / Size (nm) D-7: day 7; for Normalized EE % D-30 / PDI D-30 / Size (nm) D-30: day 30
Experimental: Stability of fLuc mRNA-LNPs produced using various ionizable lipids according to the method of Example 27, was assessed by storing the LNPs at 4° C. and 25° C. At 1, 7, and 30 days post-manufacture, the size, PDI, and encapsulation efficiency (EE) of each mRNA-LNPs samples were measured using the methods described in Experimental Examples 2 and 3.

SMILES	EE (%) [1] [%]	Total flux 1 hour (female C57BL/6 mice)	Total flux 3 hours (female C57BL/6 mice)	Total flux 6 hours (female C57BL/6 mice)	Total flux 48 hours (female C57BL/6 mice)	Total flux 72 hours (female C57BL/6 mice)	Total flux (female C57BL/6 mice)	Fold increase in total flux at 3 h, MC3 (female C57BL/6 mice)	Fold increase in total flux at 3 h, SM-102 (female C57BL/6 mice)	IL-1β Average [3]	PDI [4]	size (nm) Number [4] [nm]	Zeta (mV) [4] [mV]	CCL3 Average [5]	IL-6 Average [6]	CCL2 Average [7]	Normalized EE % D-1 ([8]; fLuc mRNA-LNP stored at 4° C.) [%]	Size (nm) D-1 ([8]; fLuc mRNA-LNP stored at 4° C.) [nm]	Normalized EE % D-7 ([8]; fLuc mRNA-LNP stored at 4° C.) [%]	PDI D-7 ([8]; fLuc mRNA-LNP stored at 4° C.)	also measured
CCCCCCCCCCCOC(=O)CCCCCN(CCCCCCCC(=O)OC(CCCCCCCC)CCCCCCCC)CC(O)CCCCNC(=O)c1cc[nH]c1 (stereo not shown) [Compound 17, Heptadecan-9-yl 8-((2-hydroxy-6-(1H-pyrrole-3-carboxamido)hexyl)(6-oxo-6-(undecyloxy)hexyl)amino)octanoate]	94	6.53E+07	2.23E+08	1.02E+08	4.80E+06	4.21E+06	1.00E+07	18.09	1.99	0.70	0.100	151	−6.80	1.10	0.94	0.65	94.0	151.2	91.3	0.098	ALP level compared to control groups (PBS and SM-102) [2]: similar; AST level compared to control groups (PBS and SM-102) [2]: lower; BUN level compared to control groups (PBS and SM-102) [2]: similar; protein expression compared to the control group (SM-102) (female C57BL/6 mice; 3 hours post intramuscular injection, in words): significantly higher protein expression; PDI D-1 ([8]; fLuc mRNA-LNP stored at 4° C.): 0.100; Size (nm) D-7 ([8]; fLuc mRNA-LNP stored at 4° C.): 133.8 nm; Normalized EE % D-30 ([8]; fLuc mRNA-LNP stored at 4° C.): 89.8%; PDI D-30 ([8]; fLuc mRNA-LNP stored at 4° C.): 0.081; Size (nm) D-30 ([8]; fLuc mRNA-LNP stored at 4° C.): 130.7 nm; Normalized EE % D-1 ([8]; fLuc mRNA-LNP stored at 25° C.): 94.0%; Size (nm) D-1 ([8]; fLuc mRNA-LNP stored at 25° C.): 151.2 nm; Normalized EE % D-7 ([8]; fLuc mRNA-LNP stored at 25° C.): 90.2%; PDI D-7 ([8]; fLuc mRNA-LNP stored at 25° C.): 0.114; Size (nm) D-7 ([8]; fLuc mRNA-LNP stored at 25° C.): 134.2 nm; Normalized EE % D-30 ([8]; fLuc mRNA-LNP stored at 25° C.): 88.6%; PDI D-30 ([8]; fLuc mRNA-LNP stored at 25° C.): 0.128; Size (nm) D-30 ([8]; fLuc mRNA-LNP stored at 25° C.): 128.1 nm
CCCCCCCCCCCOC(=O)CCCCCN(CCCCCCCC(=O)OC(CCCCCCCC)CCCCCCCC)CC(O)CCCCNC(=O)c1c(O)ccn1C (stereo not shown) [Compound 24, Heptadecan-9-yl 8-((2-hydroxy-6-(3-hydroxy-1-methyl-1H-pyrrole-2-carboxamido)hexyl)(6-oxo-6-(undecyloxy)hexyl)amino)octanoate]	90	6.70E+06	3.49E+07	4.45E+07	3.86E+06	3.66E+06	7.85E+06	2.82	0.31	0.99	0.114	137	−7.89	1.36	0.87	0.96	89.7	136.9	90.5	0.114	Size (nm) D-7 ([8]; fLuc mRNA-LNP stored at 4° C.): 123.7 nm; Normalized EE % D-1 ([8]; fLuc mRNA-LNP stored at 25° C.): 89.7%; PDI D-1 ([8]; fLuc mRNA-LNP stored at 25° C.): 0.114; Size (nm) D-1 ([8]; fLuc mRNA-LNP stored at 25° C.): 136.9 nm; Normalized EE % D-7 ([8]; fLuc mRNA-LNP stored at 25° C.): 89.6%; PDI D-7 ([8]; fLuc mRNA-LNP stored at 25° C.): 0.163; Size (nm) D-7 ([8]; fLuc mRNA-LNP stored at 25° C.): 113.5 nm
CCCCCCCCCCCOC(=O)CCCCCN(CCCCCCCC(=O)OC(CCCCCCCC)CCCCCCCC)CC(O)CCCCNC(=O)c1c[nH]c(O)n1 (stereo not shown) [Compound 35, Heptadecan-9-yl 8-((2-hydroxy-6-(2-hydroxy-1H-imidazole-4-carboxamido)hexyl)(6-oxo-6-(undecyloxy)hexyl)amino)octanoate]	90	1.54E+07	4.49E+07	5.04E+07	7.96E+05	1.27E+06	6.12E+06	3.64	0.40	0.91	0.040	123	−3.90	2.30	1.14	1.42	90.2	123.4	83.7	0.089	Size (nm) D-7 ([8]; fLuc mRNA-LNP stored at 4° C.): 130.3 nm; Normalized EE % D-30 ([8]; fLuc mRNA-LNP stored at 4° C.): 88.6%; PDI D-30 ([8]; fLuc mRNA-LNP stored at 4° C.): 0.127; Size (nm) D-30 ([8]; fLuc mRNA-LNP stored at 4° C.): 141.3 nm; Normalized EE % D-1 ([8]; fLuc mRNA-LNP stored at 25° C.): 90.2%; PDI D-1 ([8]; fLuc mRNA-LNP stored at 25° C.): 0.040; Size (nm) D-1 ([8]; fLuc mRNA-LNP stored at 25° C.): 123.4 nm; Normalized EE % D-7 ([8]; fLuc mRNA-LNP stored at 25° C.): 85.3%; PDI D-7 ([8]; fLuc mRNA-LNP stored at 25° C.): 0.098; Size (nm) D-7 ([8]; fLuc mRNA-LNP stored at 25° C.): 133.3 nm; Normalized EE % D-30 ([8]; fLuc mRNA-LNP stored at 25° C.): 88.3%; PDI D-30 ([8]; fLuc mRNA-LNP stored at 25° C.): 0.076; Size (nm) D-30 ([8]; fLuc mRNA-LNP stored at 25° C.): 123.8 nm
CCCCCCCCCCCOC(=O)CCCCCN(CCCCCCCC(=O)OC(CCCCCCCC)CCCCCCCC)CC(O)CCCCNC(=O)c1nccn1C (stereo not shown) [Compound 36, Heptadecan-9-yl 8-((2-hydroxy-6-(1-methyl-1H-imidazole-2-carboxamido)hexyl)(6-oxo-6-(undecyloxy)hexyl)amino)octanoate]	87	1.62E+07	4.51E+07	3.18E+07	3.79E+06	3.09E+06	1.03E+07	3.65	0.40	0.96	0.073	112	−3.19	2.40	1.30	1.86	87.2	111.9	89.1	0.146	Size (nm) D-7 ([8]; fLuc mRNA-LNP stored at 4° C.): 114.4 nm; Normalized EE % D-30 ([8]; fLuc mRNA-LNP stored at 4° C.): 86.6%; PDI D-30 ([8]; fLuc mRNA-LNP stored at 4° C.): 0.076; Size (nm) D-30 ([8]; fLuc mRNA-LNP stored at 4° C.): 120.9 nm; Normalized EE % D-1 ([8]; fLuc mRNA-LNP stored at 25° C.): 87.2%; PDI D-1 ([8]; fLuc mRNA-LNP stored at 25° C.): 0.073; Size (nm) D-1 ([8]; fLuc mRNA-LNP stored at 25° C.): 111.9 nm; Normalized EE % D-7 ([8]; fLuc mRNA-LNP stored at 25° C.): 89.0%; PDI D-7 ([8]; fLuc mRNA-LNP stored at 25° C.): 0.123; Size (nm) D-7 ([8]; fLuc mRNA-LNP stored at 25° C.): 110.6 nm; Normalized EE % D-30 ([8]; fLuc mRNA-LNP stored at 25° C.): 83.8%; PDI D-30 ([8]; fLuc mRNA-LNP stored at 25° C.): 0.092; Size (nm) D-30 ([8]; fLuc mRNA-LNP stored at 25° C.): 119.2 nm
